According to patent publication US12655116B2, “Substituted isophthalic acid diamides” (Bayer Aktiengesellschaft, priority 2020, dated 2026):

Legend:
VERPE [1] = assay: Pre-emergence herbicidal action against VERPE; format: in vivo, Veronica persica; conditions: Veronica persica, 504 h, dosage 80 g/ha
How it was run: (§1)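 Pre-emergence soil-surface spray of formulated compound (WP or EC; 600 to 800 l/ha; 0.2% wetting agent) over seeds sown in sandy loam. After 3 weeks under greenhouse conditions, damage is estimated visually in percent against untreated plants.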

VIOTR [2] = assay: Post-emergence herbicidal action against VIOTR; format: in vivo, Viola tricolor; conditions: Viola tricolor, 504 h, 20 g/ha
How it was run: (§2)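 Spray, one-leaf stage: WP or EC compound in water, 600–800 l/ha, 0.2% wetting agent. Plants held about 3 weeks in the greenhouse, then visually rated in percent of kill compared with untreated controls.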

ALOMY [3] = assay: Pre-emergence herbicidal action against ALOMY; format: in vivo, Alopecurus myosuroides; conditions: Alopecurus myosuroides, 504 h; 80 g/ha, pre-emergence, scored visually after 3 weeks vs untreated controls (100% = plants have died, 0% = like control plants)
How it was run: as §1

ECHCG [4] = assay: Post-emergence herbicidal action against ECHCG; format: in vivo, Echinochloa crus-galli; conditions: Echinochloa crus-galli, 504 h; for pest or weed control at 5 g/ha: dosage 5 g/ha; for pest or weed control at 20 g/ha: dosage 20 g/ha
How it was run: as §2

AMARE [5] = assay: Post-emergence herbicidal action against AMARE; format: in vivo, Amaranthus retroflexus; conditions: Amaranthus retroflexus, 504 h, 20 g/ha, visual assessment about 3 weeks after treatment, 100% = plants have died, 0% = like control plants
How it was run: as §2

AMARE [6] = assay: Pre-emergence herbicidal action against AMARE; format: in vivo, Amaranthus retroflexus; conditions: Amaranthus retroflexus, 504 h, scored visually after 3 weeks vs untreated controls, 100% = plants have died, 0% = like control plants
How it was run: as §1

DIGSA [7] = assay: Pre-emergence herbicidal action against DIGSA; format: in vivo, Digitaria sanguinalis; conditions: Digitaria sanguinalis, 504 h; for pest or weed control at 20 g/ha: dosage 20 g/ha; for pest or weed control at 80 g/ha: dosage 80 g/ha
How it was run: as §1

ECHCG [8] = assay: Pre-emergence herbicidal action against ECHCG; format: in vivo, Echinochloa crus-galli; conditions: Echinochloa crus-galli, 504 h, 80 g/ha
How it was run: as §1

POLCO = assay: Pre-emergence herbicidal action against POLCO; format: in vivo, Polygonum convolvulus; conditions: Fallopia convolvulus, 504 h, dosage 80 g/ha
How it was run: as §1

PHBPU [9] = assay: Pre-emergence herbicidal action against PHBPU; format: in vivo, Pharbitis purpurea; conditions: Ipomoea purpurea, 504 h, dosage 80 g/ha
How it was run: as §1

VIOTR [10] = assay: Pre-emergence herbicidal action against VIOTR; format: in vivo, Viola tricolor; conditions: Viola tricolor, 504 h; for pest or weed control at 80 g/ha: dosage 80 g/ha
How it was run: as §1

LOLRI = assay: Pre-emergence herbicidal action against LOLRI; format: in vivo, Lolium rigidum; conditions: Lolium rigidum, 504 h, 80 g/ha
How it was run: as §1

PHBPU [11] = assay: Post-emergence herbicidal action against PHBPU; format: in vivo, Pharbitis purpurea; conditions: Ipomoea purpurea, 504 h; for pest or weed control at 20 g/ha: dosage 20 g/ha
How it was run: as §2

VERPE [12] = assay: Post-emergence herbicidal action against VERPE; format: in vivo, Veronica persica; conditions: Veronica persica, 504 h, 20 g/ha
How it was run: as §2

ALOMY [13] = assay: Post-emergence herbicidal action against ALOMY; format: in vivo, Alopecurus myosuroides; conditions: Alopecurus myosuroides, 504 h, dosage 20 g/ha, visual assessment about 3 weeks after treatment vs untreated controls
How it was run: as §2

MATIN [14] = assay: Pre-emergence herbicidal action against MATIN; format: in vivo, Matricaria inodora; conditions: Tripleurospermum inodorum, 504 h; for pest or weed control at 20 g/ha: dosage 20 g/ha; for pest or weed control at 80 g/ha: dosage 80 g/ha
How it was run: as §1

MATIN [15] = assay: Post-emergence herbicidal action against MATIN; format: in vivo, Matricaria inodora; conditions: Tripleurospermum inodorum, 504 h; for pest or weed control at 20 g/ha: dosage 20 g/ha
How it was run: as §2

DIGSA [16] = assay: Post-emergence herbicidal action against DIGSA; format: in vivo, Digitaria sanguinalis; conditions: Digitaria sanguinalis, 504 h
How it was run: as §2

SETVI [17] = assay: Post-emergence herbicidal action against SETVI; format: in vivo, Setaria viridis; conditions: Setaria viridis, 504 h; for pest or weed control at 20 g/ha: dosage 20 g/ha
How it was run: as §2

AVEFA = assay: Pre-emergence herbicidal action against AVEFA; format: in vivo, Avena fatua; conditions: Avena fatua, 504 h; 80 g/ha, pre-emergence
How it was run: as §1

ABUTH [18] = assay: Post-emergence herbicidal action against ABUTH; format: in vivo, Abutilon theophrasti; conditions: Abutilon theophrasti, 504 h, visual assessment about 3 weeks after treatment vs untreated controls; for pest or weed control at 20 g/ha: dosage 20 g/ha
How it was run: as §2

SETVI [19] = assay: Pre-emergence herbicidal action against SETVI; format: in vivo, Setaria viridis; conditions: Setaria viridis, 504 h; for pest or weed control at 80 g/ha: dosage 80 g/ha
How it was run: as §1

ABUTH [20] = assay: Pre-emergence herbicidal action against ABUTH; format: in vivo, Abutilon theophrasti; conditions: Abutilon theophrasti, 504 h; for pest or weed control at 80 g/ha: scored visually after 3 weeks vs untreated controls (100% = plants have died, 0% = like control plants); for pest or weed control at 20 g/ha: dosage 20 g/ha, scored visually after 3 weeks vs untreated controls, 100% = plants have died, 0% = like control plants, read-out: Pre-emergence action against ABUTH (herbicidal activity in percent)
How it was run: as §1

SMILES | pest or weed control at 80 g/ha (VERPE [1]) [%] | pest or weed control at 80 g/ha (ALOMY [3]) [%] | pest or weed control at 5 g/ha (ECHCG [4]) [%] | pest or weed control at 20 g/ha (ECHCG [4]) [%] | pest or weed control at 20 g/ha (AMARE [5]) [%] | pest or weed control at 20 g/ha (AMARE [6]) [%] | pest or weed control at 80 g/ha (AMARE [6]) [%] | pest or weed control at 20 g/ha (DIGSA [7]) [%] | pest or weed control at 80 g/ha (DIGSA [7]) [%] | pest or weed control at 80 g/ha (ECHCG [8]) [%] | pest or weed control at 80 g/ha (POLCO) [%] | pest or weed control at 80 g/ha (PHBPU [9]) [%] | pest or weed control at 80 g/ha (VIOTR [10]) [%] | pest or weed control at 80 g/ha (LOLRI) [%] | pest or weed control at 20 g/ha (PHBPU [11]) [%] | pest or weed control at 20 g/ha (VERPE [12]) [%] | pest or weed control at 20 g/ha (ALOMY [13]) [%] | pest or weed control at 20 g/ha (MATIN [14]) [%] | pest or weed control at 80 g/ha (MATIN [14]) [%] | pest or weed control at 20 g/ha (MATIN [15]) [%] | also measured
Cc1c(C(=O)Nc2nnnn2C)ccc(C(F)(F)F)c1C(=O)NC(C)C [Example 1-33] | 100 | 100 | 80 | 90 | 100 | 100 | 100 | 100 | 100 | 100 | 90 | 100 | 100 | 80 | 80 | 80 | 90 | 100 | 100 | 80 | pest or weed control at 20 g/ha (VIOTR [2]): 80%; pest or weed control at 20 g/ha (VIOTR [10]; dosage 20 g/ha): 100%; pest or weed control at 5 g/ha (MATIN [15]; dosage 5 g/ha): 80%; pest or weed control at 20 g/ha (DIGSA [16]): 90%; pest or weed control at 5 g/ha (SETVI [17]; dosage 5 g/ha): 80%; pest or weed control at 20 g/ha (SETVI [17]): 90%; pest or weed control at 80 g/ha (AVEFA): 100%; pest or weed control at 20 g/ha (ABUTH [18]): 90%; pest or weed control at 80 g/ha (SETVI [19]): 100%; pest or weed control at 80 g/ha (ABUTH [20]): 100%; pest or weed control at 20 g/ha (ABUTH [20]): 90%
CC(C)NC(=O)c1c(C(F)F)ccc(C(=O)Nc2nnnn2C)c1Cl [Example 1-155] | 100 | 90 | 90 | 90 | 90 | 100 | 100 | 100 | 100 | 100 | 90 | 100 | 100 | 90 | 90 | 80 | 90 | 100 | 100 | 80 | pest or weed control at 5 g/ha (PHBPU [11]; dosage 5 g/ha): 90%; pest or weed control at 5 g/ha (DIGSA [16]; 5 g/ha): 90%; pest or weed control at 20 g/ha (DIGSA [16]): 90%; pest or weed control at 20 g/ha (SETVI [17]): 80%; pest or weed control at 80 g/ha (AVEFA): 90%; pest or weed control at 5 g/ha (ABUTH [18]; dosage 5 g/ha): 80%; pest or weed control at 20 g/ha (ABUTH [18]): 90%; pest or weed control at 20 g/ha (SETVI [19]; dosage 20 g/ha): 80%; pest or weed control at 80 g/ha (SETVI [19]): 100%; pest or weed control at 80 g/ha (ABUTH [20]): 100%; pest or weed control at 20 g/ha (ABUTH [20]): 100%
